# Measured values taken from patent US20250170236A1, “A NOVEL CATIONIC ADJUVANT COMPOSITION” (STATENS SERUM INSTITUT, priority 2022, published 2025).
# System: antigen-specific total IgG, IgG1 and IgG2c (H56 antigen)
# Set-up: species or system CB6F1 mice
# Conditions: mouse, in vivo
substance,measurement,value
CpG ODN 2006 [CpG2006],increased antibody responses (effect seen with DDA/MMG/CpG2006),not observed
